Counter-ions that a name gives are not always drawn. Some results are limits rather than exact numbers.

What all share (type): cell-based
Data set [1] has as its system H1299_eGFP cells. The data set is described as follows: Cell viability following CAD incubation (CellTiter GLO). The settings on record: for concentration with significant additional cytotoxicity compared to siNGs alone: human, 20 h. How it is done:
The silencing potential of siPLK1-NGs was established through evaluating the cell viability. Hereto, we applied the CellTiter GLO® assay (Promega, Belgium) according to the manufacturer's guidelines. Before initiating the assay, the culture plates and reconstituted assay buffer were placed at room temperature for 30 minutes. Next, the culture medium was replaced by 250 μL fresh cell medium and an equal volume of assay buffer was added. To induce complete cell lysis, the plates were shaken during 2 minutes and the signal was allowed to stabilize the following 10 minutes. 100 μL from each well was subsequently transferred to an opaque 96-well plate, which was measured with a GloMax® 96 Microplate Luminometer (Promega, Belgium). Three biological replicates were performed and data are expressed as the mean cell viability±SEM.
Please note that we only applied siCTRL-loaded NGs in this set of experiments. With the interest of evaluating the possible effect of our treatment on cell viability, the CellTiter GLO® assay was performed as described above. Again, three biological replicates were performed and data are expressed as the mean±SEM.
(ATP-based viability assays read luminescence as a measure of living cells.)

Data set [2] has as its system H1299_eGFP cells. The data set is described as follows: siNG transfection and sequential adjuvant treatment, eGFP silencing by flow cytometry. Conditions: for adjuvant effect on siNG-mediated eGFP silencing: sequential treatment 10, 20 or 40 μM, 20 h, siNGs 2 nM siRNA; for cellular siRNA delivery promoting effect: β2 agonists, 10, 20, 40 μM, 20 h after siNGs.
Data set [3] deals with H1299_eGFP cells. The data set is described as follows: Side scatter (cellular granularity) by flow cytometry. The procedure: For silencing experiments, H1299_eGFP cells were seeded in 24 well plates at a density of 35000 cells/well and were allowed to settle overnight. Subsequently, the cells were transfected and treated with small molecular adjuvants as described previously. Note that for every siEGFP or siPLK1 condition an siCTRL sample was included to account for potential off target effects. SiNG-mediated eGFP silencing was determined by flow cytometry. […] The cells were collected, centrifuged during 5 minutes at 300 g, resuspended in 300 μL flow buffer and kept on ice until analysis. For each sample the forward and side scatter as well as the green fluorescent signal were measured for at least 5000 cells.
A general note: A flow cytometer gives signals particle by particle.

Data set [4] has as its system H1299_WT cells. The data set is described as follows: Phospholipidosis detection with LipidTOX Red. The settings on record: 20 h incubation. How it is done:
H1299_WT cells were seeded and allowed to settle overnight as detailed previously. Next, the cells were incubated with a mixture of a 1/1000 dilution of the LipidTOX™ red phospholipidosis detection reagent (Thermo Fisher Scientific, USA) and the desired CAD in complete cell medium. Upon 20 hour incubation, the cells were fixed with 4% PFA and stored at 4° C. covered in Vectashield antifade mounting medium containing DAPI. Imaging occurred with a LSCM and a 100× oil immersion objective. DAPI and the LipidTOX™ red phospholipidosis dye were respectively excited with the 408 nm and 561 nm laser lines and the signal intensity was determined with Image J in minimum 30 cells from 5 images per condition.

[5] abbreviates: relative to the first four CADs.

In the case of `OCc1cc(C(O)CNCCCCCCOCCCCc2ccccc2)ccc1O` (stereo not shown) [(18) Salmeterol, Salmeterol], the “concentration with significant additional cytotoxicity compared to siNGs alone” value in data set [1] is ≥ 20 µM. Also, in data set [2], the “adjuvant effect on siNG-mediated eGFP silencing” value (“adjuvant effect” for short) is “significant additional silencing” and the “cellular siRNA delivery promoting effect” value is “significantly improve cellular siRNA delivery”.
On to `COc1ccccc1OCCNCC(O)COc1cccc2[nH]c3ccccc3c12` (stereo not shown) [(26) Carvedilol, Carvedilol], for which the “cytotoxicity versus sum of separate components” value in data set [1] (40 μM sequential to siNG) was “exceed the sum of the effects from each separate component”. Moreover, the “cytotoxicity ranking, CAD treatment alone” value in data set [1] (10-40 μM, no siNG) is given as “most cytotoxic”. Further, the “adjuvant effect” value in data set [2] is given as “significant additional silencing”.
`CNCCC=C1c2ccccc2CCc2ccccc21.Cl` [(55) Nortriptyline hydrochloride, Nortriptyline hydrochloride]: the “concentration with significant additional cytotoxicity compared to siNGs alone” value in data set [1] worked out at 40 µM. The “adjuvant effect” value in data set [2] is on record as “significant additional silencing”.
In the case of `CC(C)(C)c1ccc(C(O)CCCN2CCC(C(O)(c3ccccc3)c3ccccc3)CC2)cc1` (stereo not shown) [(56) Terfenadine, Terfenadine], the “effect on % eGFP expression compared to siNGs alone” value in data set [2] (1, 2, 3, 4 or 5 μM) is on record as “significantly reduce eGFP expression”. The “concentration required for silencing effect” value in data set [2] (setting [5]) was “substantially lower concentrations were required”.
Take `CCc1cc2c(cc1CC)CC(NCC(O)c1ccc(O)c3[nH]c(=O)ccc13)C2` (stereo not shown) [(57) Indacaterol maleate, Indacaterol maleate]: the “cellular siRNA delivery promoting effect” value in data set [2] is “significantly improve cellular siRNA delivery”.
For the molecule `CCN(CC)CCCC(C)Nc1ccnc2cc(Cl)ccc12` (stereo not shown) [Chloroquine, chloroquine], the “adjuvant effect” value in data set [2] is on record as “enhances gene silencing to a similar extent as the initial molecules tested”; in data set [2] (listed as CLQ), “improves the silencing potential of the siNGs to a similar extent”.
Consider `CCCCCCCC/C=C\CCCCCCC(O)C(=O)O` (stereo not shown) [Compound 2-OHOA, 2-hydroxy oleic acid], for which the “effect on gene silencing in combination” value in data set [2] (300 μM 2OHOA combined with 10 μM DL) is listed as “additive effect”.
Take `CCN(CC)CCO[C@H]1CC[C@@]2(C)C(=CC[C@@H]3[C@@H]2CC[C@]2(C)C(=O)CC[C@@H]32)C1` [Compound U18666A, U18666A]: the “increase in SSC signal” value in data set [3] (siNG transfection then 30 μM) is reported as 2 fold. The “effect on siNG-mediated gene silencing” value in data set [2] (30 μM) is given as “clearly improved siNG-mediated gene silencing”.
For `Br.COc1ccc2c(c1)[C@]13CCCC[C@@H]1[C@H](C2)N(C)CC3` [Dextromethorphan hydrobromide, monohydrate], in data set [4], the “LipidTOX Red phospholipid signal” value is given as “only higher doses”. In addition, in data set [3] (after siNG transfection), the “concentration significantly augmenting the SSC signal” value is > 80 µM. For the same molecule, the “higher concentration required to obtain similar silencing effects” value in data set [2] (setting [5]) is reported as 10 fold. Also, in data set [2], the “adjuvant effect” value was “does not influence gene silencing”.
As to `COc1ccc(CC(C)NCC(O)c2ccc(O)c(NC=O)c2)cc1` (stereo not shown) [formoterol, formoterol fumarate hemisulfate], the “cellular siRNA delivery promoting effect” value in data set [2] was “do not qualify as siRNA delivery enhancers”.
salbutamol hemisulfate: the “cellular siRNA delivery promoting effect” value in data set [2] was “do not qualify as siRNA delivery enhancers”.

The values are drawn from US11033572B2, “Molecular adjuvants for enhanced cytosolic delivery of active agents” (Universiteit Gent, priority 2017, dated 2021).
